Test results taken from PMC12751012, “Nanoscale Direct-to-Biology Optimization and Structural Insights into Selective S. aureus TrmD Inhibitors” (Journal of Medicinal Chemistry, 2025).

Target: T1, S. aureus TrmD (Staphylococcus aureus, UniProt Q2FZ43)
T1 construct: made in house; host or cells: E. coli BL21
T1 sequence (Q2FZ43 1-245): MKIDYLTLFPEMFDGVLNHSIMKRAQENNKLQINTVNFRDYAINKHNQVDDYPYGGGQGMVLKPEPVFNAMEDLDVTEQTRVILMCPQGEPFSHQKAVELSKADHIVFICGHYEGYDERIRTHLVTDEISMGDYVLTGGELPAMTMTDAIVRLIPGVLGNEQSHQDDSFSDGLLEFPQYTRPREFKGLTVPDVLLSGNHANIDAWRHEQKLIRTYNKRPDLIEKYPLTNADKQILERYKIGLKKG
Experiment: nanoSAR direct-to-biology FP displacement screening of crude triazoles
Format: binding
Conditions: crude triazole at 1 μM, assuming full conversion; 500 nM TrmD, 10 nM tracer 4; read-out: % displaced tracer
Outline: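 S. aureus TrmD (500 nM) with tracer 4 (10 nM) in Tris/NaCl/MgCl2/glycerol buffer, pH 7.5, was challenged with unpurified triazoles from in situ CuAAC of alkyne 7 with a 320-member azide library.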

Compound: CC(C)(C)O[C@H]1C[C@@H](n2cc(-c3c[nH]c4nc[nH]c(=O)c34)nn2)C1 [Compound 02F01, O=C1NC=NC=2NC=C(C=3N=NN(C3)[C@@H]4C[C@H](OC(C)(C)C)C4)C12]
- inhibition at 1 µM: 21%

Compound: O=c1[nH]cnc2[nH]cc(-c3cn(Cc4cc(-c5ccco5)on4)nn3)c12 [Compound 03B03, O=C1NC=NC=2NC=C(C=3N=NN(C3)CC4=NOC(C=5OC=CC5)=C4)C12]
- inhibition at 1 µM: 49%

Compound: O=c1[nH]cnc2[nH]cc(-c3cn(CCCN4CCCOCC4)nn3)c12 [Compound 02A10, O=C1NC=NC=2NC=C(C=3N=NN(C3)CCC[N@@H+]4CCOCCC4)C12]
- inhibition at 1 µM: 23%

Compound: O=c1[nH]cnc2[nH]cc(-c3cn(Cc4cnc(C(F)(F)F)s4)nn3)c12 [Compound 01F06, S1C(=NC=C1CN2N=NC(C=3C=4C(=O)NC=NC4NC3)=C2)C(F)(F)F]
- inhibition at 1 µM: 72%

Compound: Cc1nc2ccc(-n3cc(-c4c[nH]c5nc[nH]c(=O)c45)nn3)cc2s1 [Compound 01F07, S1c2c(N=C1C)ccc(N3N=NC(C=4C=5C(=O)NC=NC5NC4)=C3)c2]
- inhibition at 1 µM: 11%

Compound: N#CC1(Cn2cc(-c3c[nH]c4nc[nH]c(=O)c34)nn2)CCCCC1 [Compound 03E07, O=C1NC=NC=2NC=C(C=3N=NN(C3)CC4(C#N)CCCCC4)C12]
- inhibition at 1 µM: 69%

Compound: O=c1[nH]cnc2[nH]cc(-c3cn(Cc4cc(C5CC5)no4)nn3)c12 [Compound 01A07, O=C1NC=NC=2NC=C(C=3N=NN(C3)CC=4ON=C(C4)C5CC5)C12]
- inhibition at 1 µM: 77%

Compound: O=c1[nH]cnc2[nH]cc(-c3cn(Cc4cccs4)nn3)c12 [Compound 02B07, S1C(=CC=C1)CN2N=NC(C=3C=4C(=O)NC=NC4NC3)=C2]
- inhibition at 1 µM: 85%

Compound: O=c1[nH]cnc2[nH]cc(-c3cn(C[C@H]4CCC[C@@]5(CCOC5)O4)nn3)c12 [Compound 01A06, O=C1NC=NC=2NC=C(C=3N=NN(C3)C[C@@H]4O[C@@]5(COCC5)CCC4)C12]
- inhibition at 1 µM: 52%

Compound: COC(=O)c1cncc(-n2cc(-c3c[nH]c4nc[nH]c(=O)c34)nn2)c1 [Compound 02F05, O=C(OC)c1cncc(N2N=NC(C=3C=4C(=O)NC=NC4NC3)=C2)c1]
- inhibition at 1 µM: 11%

Compound: O=c1[nH]cnc2[nH]cc(-c3cn(Cc4cccnn4)nn3)c12 [Compound 01A03, O=C1NC=NC=2NC=C(C=3N=NN(C3)Cc4nnccc4)C12]
- inhibition at 1 µM: 65%

Compound: O=c1[nH]cnc2[nH]cc(-c3cn(-c4cccc5cn[nH]c45)nn3)c12 [Compound 02A05, O=C1NC=NC=2NC=C(C=3N=NN(c4c5NN=Cc5ccc4)C3)C12]
- inhibition at 1 µM: 1.22%

Compound: COC(=O)c1coc(Cn2cc(-c3c[nH]c4nc[nH]c(=O)c34)nn2)n1 [Compound 03C08, O=C(OC)C=1N=C(OC1)CN2N=NC(C=3C=4C(=O)NC=NC4NC3)=C2]
- inhibition at 1 µM: 40%

Compound: O=c1[nH]cnc2[nH]cc(-c3cn(C4CNC4)nn3)c12 [Compound 03F12, O=C1NC=NC=2NC=C(C=3N=NN(C3)C4C[NH2+]C4)C12]
- inhibition at 1 µM: 42%

Compound: O=c1[nH]cnc2[nH]cc(-c3cn(CC4CCC=CCC4)nn3)c12 [Compound 02G01, O=C1NC=NC=2NC=C(C=3N=NN(C3)CC4CCC=CCC4)C12]
- inhibition at 1 µM: 71%

Compound: O=c1[nH]cnc2[nH]cc(-c3cn(CCO[C@H]4CCOC4)nn3)c12 [Compound 02B12, O=C1NC=NC=2NC=C(C=3N=NN(C3)CCO[C@@H]4COCC4)C12]
- inhibition at 1 µM: 56%

Compound: O=c1[nH]cnc2[nH]cc(-c3cn(-c4ccccc4)nn3)c12 [Compound 04F04, O=C1NC=NC=2NC=C(C=3N=NN(c4ccccc4)C3)C12]
- inhibition at 1 µM: 33%

Compound: Cc1nc(Cn2cc(-c3c[nH]c4nc[nH]c(=O)c34)nn2)cs1 [Compound 01F09, S1C(=NC(=C1)CN2N=NC(C=3C=4C(=O)NC=NC4NC3)=C2)C]
- inhibition at 1 µM: 53%

Compound: O=c1[nH]cnc2[nH]cc(-c3cn([C@H]4CCCCC[C@@H]4O)nn3)c12 [Compound 02E03, O=C1NC=NC=2NC=C(C=3N=NN(C3)[C@@H]4[C@@H](O)CCCCC4)C12]
- inhibition at 1 µM: 10%

Compound: O=c1[nH]cnc2[nH]cc(-c3cn(C[C@H]4CCNC4)nn3)c12 [Compound 03C12, O=C1NC=NC=2NC=C(C=3N=NN(C3)C[C@@H]4C[NH2+]CC4)C12]
- inhibition at 1 µM: 74%

Compound: C[C@@H](C(=O)N1CCCC1)n1cc(-c2c[nH]c3nc[nH]c(=O)c23)nn1 [Compound 02E11, O=C1NC=NC=2NC=C(C=3N=NN(C3)[C@H](C(=O)N4CCCC4)C)C12]
- inhibition at 1 µM: 20%

Compound: COc1ccc(Cl)c(-n2cc(-c3c[nH]c4nc[nH]c(=O)c34)nn2)c1 [Compound 02D02, Clc1c(N2N=NC(C=3C=4C(=O)NC=NC4NC3)=C2)cc(OC)cc1]
- inhibition at 1 µM: 3%

Compound: Cc1nc2cc(-n3cc(-c4c[nH]c5nc[nH]c(=O)c45)nn3)ccc2s1 [Compound 01H06, S1c2c(N=C1C)cc(N3N=NC(C=4C=5C(=O)NC=NC5NC4)=C3)cc2]
- inhibition at 1 µM: 26%

Compound: Cn1cc(Cn2cc(-c3c[nH]c4nc[nH]c(=O)c34)nn2)cn1 [Compound 01F04, O=C1NC=NC=2NC=C(C=3N=NN(C3)CC=4C=NN(C4)C)C12]
- inhibition at 1 µM: 57%

Compound: O=C1CC[C@@H](Cn2cc(-c3c[nH]c4nc[nH]c(=O)c34)nn2)O1 [Compound 04E02, O=C1O[C@H](CN2N=NC(C=3C=4C(=O)NC=NC4NC3)=C2)CC1]
- inhibition at 1 µM: 22%

Compound: COC(=O)c1ccc(-n2cc(-c3c[nH]c4nc[nH]c(=O)c34)nn2)cc1 [Compound 03D08, O=C(OC)c1ccc(N2N=NC(C=3C=4C(=O)NC=NC4NC3)=C2)cc1]
- inhibition at 1 µM: 11%

Compound: CC(CO)(CO)Cn1cc(-c2c[nH]c3nc[nH]c(=O)c23)nn1 [Compound 03B02, O=C1NC=NC=2NC=C(C=3N=NN(C3)CC(CO)(CO)C)C12]
- inhibition at 1 µM: 67%

Compound: O=c1[nH]cnc2[nH]cc(-c3cn(-c4cc(Cl)cc(Cl)c4)nn3)c12 [Compound 03E08, Clc1cc(Cl)cc(N2N=NC(C=3C=4C(=O)NC=NC4NC3)=C2)c1]
- inhibition at 1 µM: 23%

Compound: O=c1[nH]cnc2[nH]cc(-c3cn(CC(F)(F)c4ccccc4)nn3)c12 [Compound 02H05, FC(F)(c1ccccc1)CN2N=NC(C=3C=4C(=O)NC=NC4NC3)=C2]
- inhibition at 1 µM: 46%

Compound: O=c1[nH]cnc2[nH]cc(-c3cn(-c4ccc(Cl)cn4)nn3)c12 [Compound 02C03, Clc1cnc(N2N=NC(C=3C=4C(=O)NC=NC4NC3)=C2)cc1]
- inhibition at 1 µM: -1.83%

Compound: O=c1[nH]cnc2[nH]cc(-c3cn(Cc4ccc(F)cc4)nn3)c12 [Compound 03E04, Fc1ccc(cc1)CN2N=NC(C=3C=4C(=O)NC=NC4NC3)=C2]
- inhibition at 1 µM: 85%

Compound: O=c1[nH]cnc2[nH]cc(-c3cn(C[C@H]4CCCO4)nn3)c12 [Compound 01C06, O=C1NC=NC=2NC=C(C=3N=NN(C3)C[C@@H]4OCCC4)C12]
- inhibition at 1 µM: 24%

Compound: CN(C)CCn1cc(-c2c[nH]c3nc[nH]c(=O)c23)nn1 [Compound 03A02, O=C1NC=NC=2NC=C(C=3N=NN(C3)CC[NH+](C)C)C12]
- inhibition at 1 µM: 44%

Compound: O=c1[nH]cnc2[nH]cc(-c3cn([C@H]4CCn5cccc5C4)nn3)c12 [Compound 02H10, O=C1NC=NC=2NC=C(C=3N=NN(C3)[C@@H]4CC=5N(C=CC5)CC4)C12]
- inhibition at 1 µM: 24%

Compound: NC(=O)[C@@H](c1ccc(F)cc1)n1cc(-c2c[nH]c3nc[nH]c(=O)c23)nn1 [Compound 03B07, Fc1ccc(cc1)[C@@H](N2N=NC(C=3C=4C(=O)NC=NC4NC3)=C2)C(=O)N]
- inhibition at 1 µM: 16%

Compound: O=c1[nH]cnc2[nH]cc(-c3cn(-c4ccc(O)cc4)nn3)c12 [Compound 01G09, O=C1NC=NC=2NC=C(C=3N=NN(c4ccc(O)cc4)C3)C12]
- inhibition at 1 µM: 23%

Compound: O=C(Cn1cc(-c2c[nH]c3nc[nH]c(=O)c23)nn1)NCc1ccccc1 [Compound 03A03, O=C1NC=NC=2NC=C(C=3N=NN(C3)CC(=O)NCc4ccccc4)C12]
- inhibition at 1 µM: 36%

Compound: CCC1(Cn2cc(-c3c[nH]c4nc[nH]c(=O)c34)nn2)COC1 [Compound 03F08, O=C1NC=NC=2NC=C(C=3N=NN(C3)CC4(COC4)CC)C12]
- inhibition at 1 µM: 76%

Compound: O=c1[nH]cnc2[nH]cc(-c3cn([C@@H]4C[C@H]5CCC[C@@H](C4)N5)nn3)c12 [Compound 01A08, O=C1NC=NC=2NC=C(C=3N=NN(C3)[C@@H]4C[C@@H]5[NH2+][C@H](C4)CCC5)C12]
- inhibition at 1 µM: 38%

Compound: O=c1[nH]cnc2[nH]cc(-c3cn(C[C@H]4COc5ccccc5O4)nn3)c12 [Compound 02A07, O=C1NC=NC=2NC=C(C=3N=NN(C3)C[C@@H]4Oc5c(OC4)cccc5)C12]
- inhibition at 1 µM: 81%

Compound: NC(=O)c1csc(Cn2cc(-c3c[nH]c4nc[nH]c(=O)c34)nn2)n1 [Compound 02F07, S1C(=NC(C(=O)N)=C1)CN2N=NC(C=3C=4C(=O)NC=NC4NC3)=C2]
- inhibition at 1 µM: 91%

Compound: O=c1[nH]cnc2[nH]cc(-c3cn(CCc4c[nH]c5ccccc45)nn3)c12 [Compound 02C02, O=C1NC=NC=2NC=C(C=3N=NN(C3)CCC=4c5c(NC4)cccc5)C12]
- inhibition at 1 µM: 56%

Compound: O=c1[nH]cnc2[nH]cc(-c3cn(-c4cc(F)ccc4F)nn3)c12 [Compound 02F10, Fc1c(N2N=NC(C=3C=4C(=O)NC=NC4NC3)=C2)cc(F)cc1]
- inhibition at 1 µM: 15%

Compound: N#Cc1cc(Cl)ccc1-n1cc(-c2c[nH]c3nc[nH]c(=O)c23)nn1 [Compound 02H02, Clc1cc(C#N)c(N2N=NC(C=3C=4C(=O)NC=NC4NC3)=C2)cc1]
- inhibition at 1 µM: 0%

Compound: O=c1[nH]cnc2[nH]cc(-c3cn(CCN4CCC(O)CC4)nn3)c12 [Compound 01H11, O=C1NC=NC=2NC=C(C=3N=NN(C3)CC[N@H+]4CC[C@H](O)CC4)C12]
- inhibition at 1 µM: 38%

Compound: Cn1nncc1-n1cc(-c2c[nH]c3nc[nH]c(=O)c23)nn1 [Compound 04B02, O=C1NC=NC=2NC=C(C=3N=NN(C=4N(N=NC4)C)C3)C12]
- inhibition at 1 µM: 63%

Compound: COC(=O)c1ccc(Cn2cc(-c3c[nH]c4nc[nH]c(=O)c34)nn2)o1 [Compound 01G08, O=C(OC)C=1OC(=CC1)CN2N=NC(C=3C=4C(=O)NC=NC4NC3)=C2]
- inhibition at 1 µM: 44%
